Results taken from patent publication US20200270309A1, “MALEIMIDE GROUP-MODIFIED ANGIOGENESIS INHIBITOR HM-1 AND USE THEREOF” (NANJING ANJI BIOLOGICAL TECHNOLOGY CO., LTD, priority 2017, published 2020).
Marks after values point to notes of the source that are not given here. Peptide text beside a SMILES is read from it. * marks the point of attachment. X84 = O=C1C=CC(=O)N1c1ccccc1CCCCCCCCCCCCC(=O)*; X68 = O=C1C=CC(=O)N1c1ccccc1CCCCCCCCCCCC(=O)*; X72 = O=C1C=CC(=O)N1c1ccccc1CCCCCCCCCCC(=O)*; X60 = O=C1C=CC(=O)N1c1ccccc1CCCCCCCCCC(=O)*; X55 = O=C1C=CC(=O)N1c1ccccc1CCCCCCCCC(=O)*; X52 = O=C1C=CC(=O)N1c1ccccc1CCCCCCCC(=O)*; X63 = O=C1C=CC(=O)N1c1ccccc1CCCCCCC(=O)*; X49 = O=C1C=CC(=O)N1c1ccccc1CCCCCC(=O)*; X61 = O=C1C=CC(=O)N1c1cccc(CCCC(=O)*)c1; X79 = O=C1C=CC(=O)N1c1cccc(CCC(=O)*)c1; X75 = O=C1C=CC(=O)N1c1cccc(CC(=O)*)c1

Assays:
[1] = tested on: human retinal capillary endothelial cells (HRCECs); test: MTT proliferation inhibition on HRCECs; assay type: cell-based; details: 48 h; for A570 nm-A630 nm: mean±SD
Procedure: An MTT method was used to detect the inhibitory activity of the angiogenesis inhibitor polypeptide on proliferation of HRCECs. HRCECs were digested and collected with trypsin after being cultured in an incubator at 37° C. with 5% CO2 to a density of 90% or more. The cells were resuspended with a culture solution and counted under a microscope, the cell concentration was adjusted to 3.0×10^4 cells/mL, and the cell suspension was inoculated into a 96-well plate at 100 μL/well, and cultured overnight in an incubator at 37° C. with 5% CO2. After the cells were completely adhered to the wall, cells with the addition of the angiogenesis inhibitor polypeptide were used as administration groups, cells with the addition of Avastin were used as a positive control group, and cells with the addition of culture solution without any drugs were used as a blank control group. The cells were diluted to respective predetermined concentrations with the culture solution. The diluent were added into 96-well plates respectively at 100 μL per well, and the cells were cultured at 37° C. for 48 h in an incubator with 5% CO2. 20 μL of 5 mg/mL MTT was added into each well of the 96-well plate, and the cultivation was continued for 4 h. The culture medium was removed, and 100 μL of DMSO was added to each well for dissolution. The absorbance was measured at a detection wavelength of 570 nm and a reference wavelength of 630 nm using a microplate reader, and the PIR was calculated by the formula as follows:
PIR (%)=1−administration group/negative group
The experiment was repeated independently three times. The results were expressed as mean±SD, and statistical T test was conducted. *P<0.05 indicates significant difference, and **P<0.01 indicates extremely significant difference.

[2] = tested on: retinal neovascularization (OIR model); test: Retinal vessels in OIR mice; assay type: in vivo, C57/B16 mice; details: for Area of neovascular plexus (mm^2): dose 0.05 μM in the vitreous chamber on day 13, retinal vessels evaluated on day 17; for Inhibition rate (%): dose 0.05 μM in the vitreous chamber on day 13, retinal vessels evaluated on day 17, vs negative control
Text: Establishment of an OIR model: Young mice and their mothers were exposed in a 75% hyperoxic environment from day 7 to day 12 after the birth of C57/B16 mice, which caused capillaries in their central retina to disappear rapidly. The mice were returned to the indoor air on day 12, retinal vessels exposed to hyperoxia quickly disappeared, causing extensive abnormal neoangiogenesis, and the central part of the retina remained largely avascular for a long time. After the blood vessels disappeared completely, the mice were injected with normal saline (a negative group), X1-X12, X13-X44, X45-X90 in the vitreous chamber on day 13 respectively, and retinal vessels were evaluated on day 17 ([…] of Texas red labeled tomato agglutinin was injected into the left ventricle to mark unclosed vessels and circulated for 5 min).

Structure (SMILES)	Inhibition rate (%) ([1]; dose 0.05 μM)	A570 nm-A630 nm ([1]; dose 0.05 μM)	Inhibition rate (%) ([1]; dose 0.1 μM)	A570 nm-A630 nm ([1]; dose 0.1 μM)	Inhibition rate (%) ([1]; dose 0.2 μM)	A570 nm-A630 nm ([1]; dose 0.2 μM)	Area of neovascular plexus (mm^2) [2]	Inhibition rate (%) [2]
C[C@H](NC(=O)CNC(=O)[C@H](CCCNC(=N)N)NC(=O)CCCCCc1ccccc1N1C(=O)C=CC1=O)C(=O)N[C@@H](CC(=O)O)C(=O)N[C@@H](CCCNC(=N)N)C(=O)N[C@@H](C)C(=O)NCC(=O)NCC(=O)NCC(=O)NCC(=O)N[C@@H](CCCNC(=N)N)C(=O)NCC(=O)N[C@@H](CC(=O)O)C(=O)O [X17] (X49-RGADRAGGGGRGD-OH)	55.10%*	0.5934 ± 0.03887	62.16%**	0.5001 ± 0.02347	65.08%*	0.4616 ± 0.02184	0.084 ± 0.009 mm^2	60.38%**
C[C@H](NC(=O)CNC(=O)[C@H](CCCNC(=N)N)NC(=O)CCCCCCc1ccccc1N1C(=O)C=CC1=O)C(=O)N[C@@H](CC(=O)O)C(=O)N[C@@H](CCCNC(=N)N)C(=O)N[C@@H](C)C(=O)NCC(=O)NCC(=O)NCC(=O)NCC(=O)N[C@@H](CCCNC(=N)N)C(=O)NCC(=O)N[C@@H](CC(=O)O)C(=O)O [X18] (X63-RGADRAGGGGRGD-OH)	42.60%*	0.7586 ± 0.05265	52.30%**	0.6304 ± 0.03508	61.78%*	0.5051 ± 0.08266	0.119 ± 0.011 mm^2	43.87%*
C[C@H](NC(=O)CNC(=O)[C@H](CCCNC(=N)N)NC(=O)CCCCCCCc1ccccc1N1C(=O)C=CC1=O)C(=O)N[C@@H](CC(=O)O)C(=O)N[C@@H](CCCNC(=N)N)C(=O)N[C@@H](C)C(=O)NCC(=O)NCC(=O)NCC(=O)NCC(=O)N[C@@H](CCCNC(=N)N)C(=O)NCC(=O)N[C@@H](CC(=O)O)C(=O)O [X19] (X52-RGADRAGGGGRGD-OH)	51.03%*	0.6472 ± 0.01829	63.29%**	0.4852 ± 0.07133	64.71%*	0.4664 ± 0.01886	0.083 ± 0.019 mm^2	60.85%**
C[C@H](NC(=O)CNC(=O)[C@H](CCCNC(=N)N)NC(=O)CCCCCCCCc1ccccc1N1C(=O)C=CC1=O)C(=O)N[C@@H](CC(=O)O)C(=O)N[C@@H](CCCNC(=N)N)C(=O)N[C@@H](C)C(=O)NCC(=O)NCC(=O)NCC(=O)NCC(=O)N[C@@H](CCCNC(=N)N)C(=O)NCC(=O)N[C@@H](CC(=O)O)C(=O)O [X20] (X55-RGADRAGGGGRGD-OH)	44.28%*	0.7365 ± 0.05032	46.12%**	0.7121 ± 0.0349	60.14%*	0.5268 ± 0.01299	0.118 ± 0.014 mm^2	44.34%*
C[C@H](NC(=O)CNC(=O)[C@H](CCCNC(=N)N)NC(=O)CCCCCCCCCc1ccccc1N1C(=O)C=CC1=O)C(=O)N[C@@H](CC(=O)O)C(=O)N[C@@H](CCCNC(=N)N)C(=O)N[C@@H](C)C(=O)NCC(=O)NCC(=O)NCC(=O)NCC(=O)N[C@@H](CCCNC(=N)N)C(=O)NCC(=O)N[C@@H](CC(=O)O)C(=O)O [X21] (X60-RGADRAGGGGRGD-OH)	48.85%*	0.6761 ± 0.01737	67.15%**	0.4342 ± 0.04189	69.16%*	0.4076 ± 0.06848	0.118 ± 0.012 mm^2	44.34%*
C[C@H](NC(=O)CNC(=O)[C@H](CCCNC(=N)N)NC(=O)CCCCCCCCCCc1ccccc1N1C(=O)C=CC1=O)C(=O)N[C@@H](CC(=O)O)C(=O)N[C@@H](CCCNC(=N)N)C(=O)N[C@@H](C)C(=O)NCC(=O)NCC(=O)NCC(=O)NCC(=O)N[C@@H](CCCNC(=N)N)C(=O)NCC(=O)N[C@@H](CC(=O)O)C(=O)O [X22] (X72-RGADRAGGGGRGD-OH)	49.30%*	0.6701 ± 0.07545	64.15%**	0.4738 ± 0.00344	66.52%*	0.4425 ± 0.04816	0.082 ± 0.005 mm^2	61.32%**
C[C@H](NC(=O)CNC(=O)[C@H](CCCNC(=N)N)NC(=O)CCCCCCCCCCCc1ccccc1N1C(=O)C=CC1=O)C(=O)N[C@@H](CC(=O)O)C(=O)N[C@@H](CCCNC(=N)N)C(=O)N[C@@H](C)C(=O)NCC(=O)NCC(=O)NCC(=O)NCC(=O)N[C@@H](CCCNC(=N)N)C(=O)NCC(=O)N[C@@H](CC(=O)O)C(=O)O [X23] (X68-RGADRAGGGGRGD-OH)	45.59%*	0.7191 ± 0.07483	46.74%**	0.7043 ± 0.07872	48.91%*	0.6753 ± 0.00095	0.101 ± 0.002 mm^2	52.36%**
C[C@H](NC(=O)CNC(=O)[C@H](CCCNC(=N)N)NC(=O)CCCCCCCCCCCCc1ccccc1N1C(=O)C=CC1=O)C(=O)N[C@@H](CC(=O)O)C(=O)N[C@@H](CCCNC(=N)N)C(=O)N[C@@H](C)C(=O)NCC(=O)NCC(=O)NCC(=O)NCC(=O)N[C@@H](CCCNC(=N)N)C(=O)NCC(=O)N[C@@H](CC(=O)O)C(=O)O [X24] (X84-RGADRAGGGGRGD-OH)	40.01%*	0.7929 ± 0.02399	44.87%**	0.7286 ± 0.00571	49.60%*	0.6661 ± 0.02372	0.107 ± 0.012 mm^2	49.53%*
C[C@H](NC(=O)CNC(=O)[C@H](CCCNC(=N)N)NC(=O)Cc1cccc(N2C(=O)C=CC2=O)c1)C(=O)N[C@@H](CC(=O)O)C(=O)N[C@@H](CCCNC(=N)N)C(=O)N[C@@H](C)C(=O)NCC(=O)NCC(=O)NCC(=O)NCC(=O)N[C@@H](CCCNC(=N)N)C(=O)NCC(=O)N[C@@H](CC(=O)O)C(=O)O [X25] (X75-RGADRAGGGGRGD-OH)	50.23%*	0.6578 ± 0.08044	54.21%**	0.6052 ± 0.09358	63.33%*	0.4847 ± 0.06551	0.096 ± 0.012 mm^2	54.72%**
C[C@H](NC(=O)CNC(=O)[C@H](CCCNC(=N)N)NC(=O)CCc1cccc(N2C(=O)C=CC2=O)c1)C(=O)N[C@@H](CC(=O)O)C(=O)N[C@@H](CCCNC(=N)N)C(=O)N[C@@H](C)C(=O)NCC(=O)NCC(=O)NCC(=O)NCC(=O)N[C@@H](CCCNC(=N)N)C(=O)NCC(=O)N[C@@H](CC(=O)O)C(=O)O [X26] (X79-RGADRAGGGGRGD-OH)	41.47%*	0.7736 ± 0.06908	48.48%**	0.6810 ± 0.02943	68.51%*	0.4162 ± 0.00082	0.104 ± 0.001 mm^2	50.94%**
C[C@H](NC(=O)CNC(=O)[C@H](CCCNC(=N)N)NC(=O)CCCc1cccc(N2C(=O)C=CC2=O)c1)C(=O)N[C@@H](CC(=O)O)C(=O)N[C@@H](CCCNC(=N)N)C(=O)N[C@@H](C)C(=O)NCC(=O)NCC(=O)NCC(=O)NCC(=O)N[C@@H](CCCNC(=N)N)C(=O)NCC(=O)N[C@@H](CC(=O)O)C(=O)O [X27] (X61-RGADRAGGGGRGD-OH)	49.84%*	0.6629 ± 0.02448	56.47%**	0.5753 ± 0.02814	56.64%*	0.5731 ± 0.04774	0.106 ± 0.002 mm^2	50.00%**
